Tests used:
[1] = system: 5×FAD+/− CA1 pyramidal neurons; assay: Whole-cell patch-clamp recording of action potential firing in 5×FAD+/− CA1 pyramidal neurons in brain slices; type: cell-based, mouse; details: 10 μM, 3-4 months old 5×FAD+/− CA1 pyramidal neurons
Method: Acute brain slices were prepared according to the published procedures with some modifications (Ting et al., 2014; Ting et al., 2018).
For whole-cell patch-clamp recordings, slices were transferred to a submerged recording chamber perfused with carbogenated external solutions at a flow rate of 4-6 mL/min at room temperature. Action potentials (APs) were measured in hippocampal CA1 pyramidal neurons in transverse hippocampal slices (260 μm) from all genotypes of 3-4 months old mice using whole-cell patch-clamp with an […] amplifier (Axon Instruments). […] Membrane potentials in 5-6 months old or older neurons were not measured as aged neurons are difficult to patch. AP firing was recorded in an external solution (NaCl, 124 mM; KCl, 2.5 mM; NaH2PO4, 1.25 mM; NaHCO3, 24 mM; HEPES, 5 mM; glucose, 12.5 mM; MgCl2, 2 mM; and CaCl2, 2 mM; pH 7.4 adjusted with NaOH) and soft-glass recording pipettes (Sutter Instruments; Novato CA) filled with an internal solution (potassium gluconate, 135 mM, KCl, 10 mM, HEPES, 10 mM, CaCl2, 1 mM, MgCl2, 1 mM, EGTA, 10 mM, ATP, 1 mM, GTP, 0.1 mM, and pH 7.3 adjusted with KOH). […] For spontaneous AP recording, cells were hold at −70 mV and recorded for 3 min. […] For testing the Kv4 channel agonist NS5806, APs were measured before and 15 min after perfusion of 10 μM NS5806 in the external solution. […]

[2] = system: hippocampal CA3-CA1 pathway of 5×FAD+/− mice; assay: Long-term potentiation / fEPSP recording in hippocampal slices from treated 5×FAD+/− mice; type: in vivo, mouse; details: 3.2 mg/kg/day for one month started at 2-3 months of age (before AD symptoms), slices at 3-4 months; vs DMSO
Method: Adult genetically engineered mice, 5×FAD^+/− (Oakley et al., 2006), RyR2-E4872Q^+/− (EQ^+/−) (Chen et al., 2014), 5×FAD^+/−/RyR2-E4872Q^+/− (5×FAD^+/−/EQ^+/−), and wildtype (WT) littermates of both sexes were used. R-carvedilol (R-CV) (at doses of 0.8, 1.6 or 3.2 mg/kg/day), racemic carvedilol (3.2 mg/kg/day), and vehicle control (DMSO) were delivered to 5×FAD^+/− mice in drinking water for one month, starting at different ages before (2-3 months old) or after (3-4 months old) the occurrence of AD pathologies (Oakley et al., 2006). To assess the effects of genetically and pharmacologically limiting RyR2 open time on the prevention and rescue of AD deficits in different stages (early, moderate, and late) of AD progression, animals at different ages (from 2-15 months) were used. […] For 2-photon Ca^2+ imaging experiments, 5×FAD, RyR2 WT, and RyR2 mutant mice were cross-bred with the heterozygous Thy1-GCaMP6f transgenic mice (Chen et al., 2012; Chen et al., 2013) (GP5.17, JAX 025393) to express the GCaMP6f Ca^2+ sensing probe (driven by the Thy1 promotor) in hippocampal neurons in each of the genotypes used.
Schaffer collateral fibers were stimulated at the CA3 subfield to record field excitatory postsynaptic potentials (fEPSPs) in the CA1 stratum radiatum of transverse hippocampal slices ([…]) from all genotypes and drug-treated mice at different ages. After recovering at room temperature for 1 h (or 2 h for brain slices from drug-treated mice), hippocampal slices were allowed to recover in the recording chamber for additional 10 min. To evaluate basal synaptic transmission, different stimulation strengths (0 μA to 200 μA in steps of 20 μA) were applied and plotted fEPSP slopes versus the current input to compare the slope of input/output (I/O) curves of fEPSP. In the experiments that followed, stimulus current was adjusted so that fEPSP stabilized at 40-50% of maximum. Baseline was recorded for at least […] until the differences among fEPSP slopes were within 10%. Long-term potentiation (LTP) was induced using a tetanic high-frequency stimulation (HFS; 4 trains of 100 pulses at 100 Hz, with 20-sec intervals). Synaptic responses were recorded for at least 60 min after tetanization and quantified as the slope of the evoked fEPSP as percentage of the baseline.

5×FAD+/− mice = assay: Learning and memory tests (Morris water maze, novel object recognition) in 5×FAD+/− mice; type: in vivo, mouse; details: 3.2 mg/kg/day for one month started at 2-3 months of age (before AD symptoms), tested at 3-4 months; vs DMSO
Method: Adult genetically engineered mice, 5×FAD^+/− (Oakley et al., 2006), RyR2-E4872Q^+/− (EQ^+/−) (Chen et al., 2014), 5×FAD^+/−/RyR2-E4872Q^+/− (5×FAD^+/−/EQ^+/−), and wildtype (WT) littermates of both sexes were used. R-carvedilol (R-CV) (at doses of 0.8, 1.6 or 3.2 mg/kg/day), racemic carvedilol (3.2 mg/kg/day), and vehicle control (DMSO) were delivered to 5×FAD^+/− mice in drinking water for one month, starting at different ages before (2-3 months old) or after (3-4 months old) the occurrence of AD pathologies (Oakley et al., 2006). To assess the effects of genetically and pharmacologically limiting RyR2 open time on the prevention and rescue of AD deficits in different stages (early, moderate, and late) of AD progression, animals at different ages (from 2-15 months) were used. As reported (Oakley et al., 2006), there was an age-dependence of AD progression in the 5×FAD^+/− mice. No sex-dependent differences in AD progression in these mice was observed. For 2-photon Ca^2+ imaging experiments, 5×FAD, RyR2 WT, and RyR2 mutant mice were cross-bred with the heterozygous Thy1-GCaMP6f transgenic mice (Chen et al., 2012; Chen et al., 2013) (GP5.17, JAX 025393) to express the GCaMP6f Ca^2+ sensing probe (driven by the Thy1 promotor) in hippocampal neurons in each of the genotypes used.
The learning and memory of mice with all genotypes were evaluated using the Morris water maze (MWM) test, the Barnes maze (BM) test, and/or the novel object recognition (NOR) test. Experiments were carried out blindly. For the MWM test, mice at different ages were trained to localize a hidden escape platform (10×10 cm) in a circular pool (116.84 cm in diameter, 50 cm in depth) (San Diego Instruments, CA) via distal visual cue. The platform was submerged 1-2 cm beneath the surface in water (22-24°C.), which was rendered opaque by addition of milk powder. The localization of the pool in relation to visual cues was maintained constantly during the entire task. The cues were distinct in color and shape. Digital division of the tracking area (pool) into four quadrants was performed by the SMART video tracking system, Smart 3.0 (Panlab Harvard Apparatus; Barcelona Spain). The escape platform was placed in the centre of the south-west quadrant for the entirety of the learning phase (4 training days) and digitally defined as target. Spatial training consisted of 4 days with 5 trials per mouse per day. Mice were released with their heads facing the pool wall at one of four entry locations (north, east, south and west) in a non-repetitive random order. Swimming was automatically video-tracked until the subject found the escape platform and remained on it (≥5 sec), or until a maximum of 60 seconds. […] In between trials (inter-trial interval ≥10 min), mice were housed in heated cages to avoid performance deficits due to exhaustion or hypothermia. The latency and swimming speed to reach the escape platform were recorded for comparison. After the learning phase, memory retention was evaluated by one probe trial 24 hours after the last training session. The escape platform was removed before mice were released from the north entry point into the pool. Their swimming was video-tracked for 60 seconds. The area at the location of the removed hidden platform was defined as the target and the south-west quadrant the target quadrant. The percentage of time mice spent in the target quadrant (including the target) were measured for comparison.
For the NOR test, mice were habituated for 10 min per mouse in an equally illuminated, odor-free, white, plastic box (40×40×50 cm^3) embedded with fresh aspen shavings and shreds. In between each mouse trial the box was wiped with ethanol to avoid odor-induced stress. 24 hours after habituation, two identical objects ware placed at equal distance to each other and the corners of the box. Each mouse was placed into the center, and allowed to move freely for 10 min. Mice were video recorded during this familiarizing phase. […]

[3] = system: ryanodine receptor (RyR2); details: cited from earlier work
oligomeric Aβ = details: chronic treatment, animal studies; cited from earlier work
AD = details: racemic mixture at a dose of 25 mg per day, pilot clinical trial; cited from earlier work
[4] = system: Kv4.2/KChIP4 channel complex; assay: Whole-cell A-type K+ current recording in Kv4.2/KChIP4 transfected HEK293 cells expressing RyR2 WT; type: cell-based; details: caffeine 2.5 mM, 2 min after application vs baseline
Method: Previous studies used whole-cell patch clamp recordings at the soma of CA1 pyramidal cells to measure the whole-cell A-type K^+ current (Chen, 2005; Good et al., 1996; Hall et al., 2015; Scala et al., 2015). To make comparisons to earlier studies, the same approach was employed. Briefly, whole-cell A-type K^+ current (IA) was elicited by depolarizing pulses to +40 mV from a holding potential of −100 mV in the presence of 20 mM tetraethylammonium (TEA) and 100 nM tetrodotoxin (TTX). In steady-state activation experiments, membrane potential was held at −100 mV, and IA was evoked by a 200-ms depolarizing pulse from a first pulse potential of −80 mV to +80 my in 10-mV steps at 10-s intervals, Data were analyzed using the equation GK=IK/(Vm−Vrev), where GK is the membrane K^+ conductance, Vm is the membrane potential, and Vrev is the reversal potential for K^+. To study steady-state inactivation of IA, currents were elicited using 1-s conditioning pre-pulses from −110 mV to 0 mV before a 200-ms test pulse of +50 mV. After normalizing each current amplitude to the maximal current, amplitude obtained from the −110 mV pre-pulse was used as a function of the conditioning pre-pulse potential and fitted with the function IA/IA−max=1/(1+exp((Vm1/2−Vm)/k)), from which, an inactivation curve of IA was obtained, and the VH value (the voltage at which the current amplitude was half-inactivated) was calculated. The somatic whole-cell recordings provide information on the magnitude of somatic A-type K^+ current, an important determinant of somatic excitability.
For HEK293 cell experiments, HEK293 cell lines were maintained as previously described (Jiang et al., 2004) and transiently transfected with cDNAs of Kv4.2 and KChIP4 together with cDNA encoding for GFP to identify cells successfully transfected. 12-16 h before recording, tetracycline was added to culture media to induce the expression of RyR2 WI or RyR2 E4872Q mutant. IA was recorded with the same protocols as described above. Prior to IA recording, the culture medium was replaced with a bath solution (NaCl, 125 mM; KCl, 2.5 mM; HEPES, 10 mM; MgCl2, 1 mM; glucose, 10 mM; TEA, 20 mM; pH 7.4 adjusted with NaOH).

Structure (SMILES): O=C(Nc1cc(C(F)(F)F)cc(C(F)(F)F)c1)Nc1c(Br)cc(Br)cc1-c1nn[nH]n1 [NS5806]
- threshold current for inducing AP firing ([1]; before vs 15 min after perfusion): dramatically increased
- frequency of AP firing ([1]; current injection-triggered): decreased

Structure (SMILES): COc1ccccc1OCCNCC(O)COc1cccc2[nH]c3ccccc3c12 (racemic) [Racemic carvedilol, carvedilol]
- LTP impairment [2]: did not prevent
- memory loss / learning and memory deficits (MWM, NOR) (5×FAD+/− mice): did not prevent
- store-overload-induced Ca2+ release [3]: reduces
- content of oligomeric Aβ in the brain (oligomeric Aβ): significantly reduced
- improvement in AD (AD): no significant improvement

Structure (SMILES): Cn1c(=O)c2c(ncn2C)n(C)c1=O [Caffeine]
- Kv4.2-mediated current [4]: decreased
- decay time (inactivation time constant Tau) of Kv4.2-mediated current [4]: decreased
- voltage-dependent activation of Kv4.2-mediated current [4]: without altering
- voltage-dependent inactivation of Kv4.2-mediated current [4]: without altering
